Experimental data taken from BindingDB's records for doi:10.1021/acschembio.6b00666 (Virginia Tech, 2016).

Tests used:
[1] = target: T1, L-ornithine N(5)-monooxygenase (Aspergillus fumigatus (strain ATCC MYA-4609 / CBS 101355 / FGSC A1100 / Af293), UniProt E9QYP0); assay: SidA Activity Assay; settings: pH 7.5
Experimental: Briefly, this assay consists of the formation of nitrite from hydroxyl amine that is quantified by formation of a chromophore with α-naphthylamine, which has an absorbance maximum at 529 nm. Formation of HO-Orn was quantified using a standard curve with hydroxylamine (25−350 μM). The standard assay contained 25 μL of 100 mM sodium phosphate (pH 7.5), 1 μM SidA, 500 μM L-Orn, and 250 μM NADPH for activity and IC50 determinations. Compound concentration was varied from 0.01 to 1 mM, and the reaction mix contained a final DMSO concentration of 10%. The reaction was started with the addition of NADPH, allowed to proceed for 20 min atRT, and quenched with 13 μL of 2 N HClO4. To identify compounds that caused inhibition by inducing protein aggregation, the IC50 was determined in 100 mM phosphate buffer, pH 7.5, containing 0.1% v/v Triton X-100.23 As some compounds had either an increase or decrease in the color development or had absorbance at a visi

[2] = target: T1, L-ornithine N(5)-monooxygenase; assay: ADP-TAMRA Binding Assay; settings: pH 7
Experimental: The 96 well plates were used, and the reaction volume was 25 μL using 50 mM sodium phosphate buffer (pH 7.0). For the screening, 30 nM of ADP-TAMRA with 2 μM SidA (based on the Bradford assay) and 20 μM of library compound were used, withthe final DMSO concentration at 2%. Fluorescence polarization measurements were performed with excitation at 544 nm and emission at 584 nm, using a wavelength cutoff of 570 nm. Anisotropy values were normalized to the values obtained in the negative control sample: SidA, ADP-TAMRA, and DMSO. The positive control consisted of ADP-TAMRA and DMSO.

T1 sequence (E9QYP0 whole entry): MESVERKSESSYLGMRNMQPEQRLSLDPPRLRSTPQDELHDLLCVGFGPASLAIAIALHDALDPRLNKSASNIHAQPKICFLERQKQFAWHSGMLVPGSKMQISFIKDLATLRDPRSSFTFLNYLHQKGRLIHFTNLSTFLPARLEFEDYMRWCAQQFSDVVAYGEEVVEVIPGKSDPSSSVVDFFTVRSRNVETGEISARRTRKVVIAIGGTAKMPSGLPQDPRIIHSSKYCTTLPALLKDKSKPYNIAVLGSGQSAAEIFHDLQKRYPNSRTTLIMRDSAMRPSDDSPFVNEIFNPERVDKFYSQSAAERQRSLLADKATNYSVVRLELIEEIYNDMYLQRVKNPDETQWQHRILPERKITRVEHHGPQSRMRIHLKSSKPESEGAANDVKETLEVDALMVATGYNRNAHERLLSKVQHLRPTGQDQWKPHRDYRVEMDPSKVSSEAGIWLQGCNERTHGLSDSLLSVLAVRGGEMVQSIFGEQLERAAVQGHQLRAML

Question: What does the source list for `CC1=C(O)C(=O)C=C2C1=CC=C1[C@@]2(C)CC[C@@]2(C)[C@@H]3C[C@](C)(C(=O)O)CC[C@]3(C)CC[C@]12C` [Celastrol]?
Answer: IC50 [1]: 11 µM; Kd [2]: 1.4 µM
